Source: US20090068290A1, “BIFEPRUNOX DOSES FOR TREATING SCHIZOPHRENIA” (priority 2006, published 2009)

Columns and labels:
Format in all cases: in vivo, human
[1] = test system: adult subjects with schizophrenia; experiment: PANSS responder rates, Clinical Study Three; settings: for PANSS 20% definition response rate No, % / PANSS 20% definition response rate Yes, %: Week 6/Endpoint, LOCF; for 20% PANSS responder rate: Endpoint LOCF
Description: (§1) There were four treatment arms in this study, approximately 144 subjects per arm. […] After completing the Single-Blind Placebo Lead-in Period of at least three days, bifeprunox-treated subjects were titrated from 0.25 mg up to 20 mg/day or 30 mg/day according to a standardized titration scheme over a seven- or eight-day period, respectively. When the assigned dose was reached, subjects were maintained at that dose for the remainder of the six week treatment period. […] Subjects were hospitalized (if not already inpatients) after eligibility for study entry was verified, starting from the Screening Visit until at least 10 days after Baseline. Subjects could be hospitalized longer than 10 days if considered medically necessary by the Investigator. Rating scale assessments for efficacy and abnormal movement disorders were done weekly except for Week 5. Safety assessments were performed at Screening, during treatment and at the end of the study. Subject satisfaction with study medication was assessed at Week 6. Samples of whole blood were obtained at Weeks 2, 4, and 6 for determination of bifeprunox in plasma.
CLINICAL STUDY THREE. A PANSS responder was defined as a subject whose PANSS total score decreased by 20% or more from Baseline to Endpoint. As exploratory analyses, responder rates were also analyzed using a 30%, 35%, 40%, and 50% definition of responder.

[2] = test system: adult subjects with schizophrenia; experiment: PANSS positive symptom subscale score, Clinical Study Three; settings: LOCF, ITT; for PANSS Positive Symptom Subscale Score, Trt Effect (bifeprunox—placebo): ANCOVA
Description: SECONDARY OBJECTIVES To assess the efficacy of bifeprunox in treating schizophrenia using the Positive Symptom sub-scale score of the PANSS, the Negative Symptom sub-scale score of the PANSS, the General Psychopathology sub-scale of the PANSS, Brief Psychiatric Rating Scale (BPRS) total score derived from the PANSS, BPRS psychosis score derived from the PANSS, the Clinical Global Impression Severity of Illness score (CGI-S), the Clinical Global Impression Improvement score (CGI-I), CGI-I responder rate, PANSS responder rate based on the PANSS total score, Calgary Depression Scale for Schizophrenia (CDSS), and Subject Satisfaction rating.
There were four treatment arms in this study, approximately 144 subjects per arm. […] After completing the Single-Blind Placebo Lead-in Period of at least three days, bifeprunox-treated subjects were titrated from 0.25 mg up to 20 mg/day or 30 mg/day according to a standardized titration scheme over a seven- or eight-day period, respectively. When the assigned dose was reached, subjects were maintained at that dose for the remainder of the six week treatment period. […] Subjects were hospitalized (if not already inpatients) after eligibility for study entry was verified, starting from the Screening Visit until at least 10 days after Baseline. Subjects could be hospitalized longer than 10 days if considered medically necessary by the Investigator. Rating scale assessments for efficacy and abnormal movement disorders were done weekly except for Week 5. […] Subject satisfaction with study medication was assessed at Week 6.

[3] = test system: adult subjects with schizophrenia; experiment: CGI responder rate, Clinical Study Two; settings: LOCF
Description: Notable differences were also observed between the 30 mg bifeprunox group and placebo for the change from baseline to endpoint in PANSS general psychopathology subscale score, BPRS total score, BPRS psychosis cluster score, PANSS responder rate, and CGI-I responder rate. In the study, a PANSS responder refers to a subject whose PANSS total score decreased by 20% or more from baseline to endpoint. A CGI-I responder refers to a subject who was categorized as “very much improved” or “much improved” in the CGI Global Improvement scale at endpoint.
Pharmacokinetic (PK) data of bifeprunox in schizophrenic subjects were also assessed and are presented in a separate report (combined with data from study S1543003).
Subjects who completed this study had the option to continue in the long-term. […] Risperidone-treated subjects were titrated from 2 mg to 6 mg daily over a three-day period and were subsequently maintained at 6 mg/day for the remainder of the treatment period. […] Blood samples were also obtained at Screening/Baseline, Week 3, and Week 6 for clinical laboratory assessments.
CLINICAL STUDY TWO: A CGI responder is defined as a subject who is categorized as “very much improved” or “much improved” on the CGI Improvement scale. […] A notable difference between the 30 mg bifeprunox group and placebo was seen (p=0.039).

[4] = test system: adult subjects with schizophrenia; experiment: PANSS total score, Clinical Study Three (6-week, olanzapine-referenced); settings: Bifeprunox 20 mg, LOCF, ITT
Description: as §1
Test Product, Dose and Mode of Administration: Bifeprunox tablets, total daily dose 20 mg or 30 mg (one 20 mg tablet and one 10 mg tablet) administered orally using a once daily dosing regimen.

[5] = Bifeprunox 20 mg, Week 6/Endpoint
[6] = Bifeprunox 30 mg, Week 6/Endpoint

With `O=c1[nH]c2cccc(N3CCN(Cc4cccc(-c5ccccc5)c4)CC3)c2o1` [Bifeprunox, 7-[4-([1,1′-biphenyl]-3-ylmethyl)-1-piperazinyl]-2(3H)-benzoxazolone] the “PANSS 20% definition response rate No, %” value ([1]; 20 mg) was 58%, the “PANSS 20% definition response rate Yes, %” value ([1]; 20 mg) was 42% and the “PANSS 20% definition response rate No, %” value ([1]; 30 mg) was 61%. The “PANSS 20% definition response rate Yes, %” value ([1]; 30 mg) was 39%, the “20% PANSS responder rate” value ([1]; bifeprunox 20 mg) was 42% and the “20% PANSS responder rate” value ([1]; bifeprunox 30 mg) was 39%. The “Change from Baseline in PANSS Positive Symptom Subscale Score, Mean (SD)” value ([2]; Bifeprunox 20 mg, Week 1) was −1.6 (3.7), the “Change from Baseline in PANSS Positive Symptom Subscale Score, Median” value ([2]; Bifeprunox 20 mg, Week 1) was −2 and the “Change from Baseline in PANSS Positive Symptom Subscale Score, Mean (SD)” value ([2]; Bifeprunox 20 mg, Week 2) was −3.0 (4.7). For the same compound, the “Change from Baseline in PANSS Positive Symptom Subscale Score, Median” value ([2]; Bifeprunox 20 mg, Week 2) was −3, the “Change from Baseline in PANSS Positive Symptom Subscale Score, Mean (SD)” value ([2]; Bifeprunox 20 mg, Week 3) was −3.8 (5.2) and the “Change from Baseline in PANSS Positive Symptom Subscale Score, Median” value ([2]; Bifeprunox 20 mg, Week 3) was −3. The “Change from Baseline in PANSS Positive Symptom Subscale Score, Mean (SD)” value ([2]; Bifeprunox 20 mg, Week 4) was −4.2 (5.7), the “Change from Baseline in PANSS Positive Symptom Subscale Score, Median” value ([2]; Bifeprunox 20 mg, Week 4) was −4 and the “Change from Baseline in PANSS Positive Symptom Subscale Score, Mean (SD)” value [2, 5] was −4.3 (6.1). The “Change from Baseline in PANSS Positive Symptom Subscale Score, Median” value [2, 5] was −4, the “PANSS Positive Symptom Subscale Score, Trt Effect (bifeprunox—placebo)” value [2, 5] was −1.1 and the “Change from Baseline in PANSS Positive Symptom Subscale Score, Mean (SD)” value ([2]; Bifeprunox 30 mg, Week 1) was −2.0 (3.8). For the same compound, the “Change from Baseline in PANSS Positive Symptom Subscale Score, Median” value ([2]; Bifeprunox 30 mg, Week 1) was −2, the “Change from Baseline in PANSS Positive Symptom Subscale Score, Mean (SD)” value ([2]; Bifeprunox 30 mg, Week 2) was −2.8 (5.1) and the “Change from Baseline in PANSS Positive Symptom Subscale Score, Median” value ([2]; Bifeprunox 30 mg, Week 2) was −3. For the same compound, the “Change from Baseline in PANSS Positive Symptom Subscale Score, Mean (SD)” value ([2]; Bifeprunox 30 mg, Week 3) was −3.6 (6.0), the “Change from Baseline in PANSS Positive Symptom Subscale Score, Median” value ([2]; Bifeprunox 30 mg, Week 3) was −4 and the “Change from Baseline in PANSS Positive Symptom Subscale Score, Mean (SD)” value ([2]; Bifeprunox 30 mg, Week 4) was −4.0 (6.3). For the same compound, the “Change from Baseline in PANSS Positive Symptom Subscale Score, Median” value ([2]; Bifeprunox 30 mg, Week 4) was −4, the “Change from Baseline in PANSS Positive Symptom Subscale Score, Mean (SD)” value [2, 6] was −4.2 (6.8) and the “Change from Baseline in PANSS Positive Symptom Subscale Score, Median” value [2, 6] was −5. The “PANSS Positive Symptom Subscale Score, Trt Effect (bifeprunox—placebo)” value [2, 6] was −0.7, the “CGI Responder at Endpoint No, %” value ([3]; 30 mg) was 64% and the “CGI Responder at Endpoint Yes, %” value ([3]; 30 mg) was 36%. The “CGI Responder at Endpoint No, %” value ([3]; 40 mg) was 72%, the “CGI Responder at Endpoint Yes, %” value ([3]; 40 mg) was 28% and the “CGI-I responder rate (subjects much or very much improved) at Endpoint” value ([3]; bifeprunox 30 mg) was 36%. For the same compound, the “CGI-I responder rate (subjects much or very much improved) at Endpoint” value ([3]; bifeprunox 40 mg) was 28%, the “Change from Baseline in PANSS Total Score, Mean (SD)” value ([4]; Week 1) was −5.6 (11.7) and the “Change from Baseline in PANSS Total Score, Median” value ([4]; Week 1) was −5. The “Change from Baseline in PANSS Total Score, Mean (SD)” value ([4]; Week 2) was −10.2 (14.8), the “Change from Baseline in PANSS Total Score, Median” value ([4]; Week 2) was −10 and the “Change from Baseline in PANSS Total Score, Mean (SD)” value ([4]; Week 3) was −12.6 (16.9). The “Change from Baseline in PANSS Total Score, Median” value ([4]; Week 3) was −13, the “Change from Baseline in PANSS Total Score, Mean (SD)” value ([4]; Week 4) was −13.3 (18.7) and the “Change from Baseline in PANSS Total Score, Median” value ([4]; Week 4) was −13. The “Change from Baseline in PANSS Total Score, Mean (SD)” value ([4]; Week 6/Endpoint) was −13.8 (19.9) and the “Change from Baseline in PANSS Total Score, Median” value ([4]; Week 6/Endpoint) was −14.
